Experimental data from patent US10786575B2, “Self-emulsifying composition of Ω3 fatty acid” (priority 2015, dated 2020).
Where two headings read alike, the source gives them in different places.

Columns and labels:
[1] = human, in vivo, po, 3600 mg
Method: (§1) The capsule having the self-emulsifying composition of the present invention containing 80% by weight of EPA-E as its content was orally administered to human (12 cases, healthy adult males of 20 to 40 years old with a body weight of 55.0 to 77.0 kg and a BMI of 18.5 or more but less than 25.0) under fasting conditions to evaluate the change of blood EPA concentration. The self-emulsifying composition in an amount corresponding to 1800 mg of EPA-E was orally administered in single dose to each human who had been fasted since 10 hours or more before the administration by using 200 mL of water in the morning under fasting. The blood was collected 0.5, 1, 1.5, 2, 3, 4, 5, 6, 7, 8, 9, 10, 12, 15, 18, 24, 48 and 72 hours after the administration. Immediately after the collection, the blood was cooled on ice, and centrifuged at 2000×g at 4° C. for 10 minutes to separately collect the plasma. After having stored the resulting plasma at a temperature not higher than −20° C. in frozen state, concentration of the EPA in the plasma was measured by LC/MS/MS (method in which a sample is isolated by liquid chromatography, then subjected to mass spectrometry to conduct separation and measurement thereon).
(§2) The capsule having the self-emulsifying composition of the present invention containing 80% by weight of EPA-E as its content was also orally administered to human immediately after meals, and the measurement was conducted by repeating the procedure as described above.
(§3) For the control group, the EPA-E stock solution (high purity EPA-E (at least 96.5% by weight) containing no emulsifier or the like and used with the same EPA-E amount as that of the self-emulsifying composition of the present invention; the same applying hereafter) filled in the capsule was orally administered to human (12 cases, healthy adult males of 20 to 40 years old with a body weight of 55.0 to 77.0 kg and a BMI of 18.5 or more but less than 25.0) under fasting conditions (fasting since at least 10 hours before the administration), and the measurement was conducted by repeating the procedure as described above.
This test was conducted on 6 humans. […] In the calculation of each parameter, correction was made by subtracting the blood EPA concentration before the administration from the measured blood concentration.

[2] = Test Example 5: pharmacokinetics in beagles (plasma EPA, LC/MS/MS); parameters: species or system male beagles; conditions: dog, in vivo, po, 600 mg
Method: The produced compositions or capsules (Examples 1, 3 and 5) were each orally administered to 6 male beagles (at the age of 2 to 6 years with the body weight of 8 to 13 kg, 3 Marshall beagles and 3 Nosan beagles) under fasting conditions, and blood EPA concentration was evaluated. […] The control group was administered with the EPA-E stock solution encapsulated in a capsule.

[3] = human, in vivo, po, 1800 mg
Method: as §1, §2, §3
In the calculation of each parameter, correction was made by subtracting the blood EPA concentration before the administration from the measured blood concentration.

Q: With CC/C=C\C/C=C\C/C=C\C/C=C\C/C=C\CCCC(=O)OCC [Comp. Ex. 5, Ethyl eicosapentaenoate] as the molecule, how does the AUC0-72 hr [1] read?
A: 113700 ng·h/mL

Q: What about the Cmax [1] of the same molecule?
A: 3600 ng/mL

Q: What about the Tmax [1] of the same molecule?
A: 21.8 h

Q: And the t½ [1]?
A: 22.8 h

Q: What about the AUC0-1 [2] of the same molecule?
A: 11300 ng·h/mL

Q: And the AUC0-26 [2]?
A: 76600 ng·h/mL

Q: What about the Cmax [2] of the same molecule?
A: 18400 ng/mL

Q: And the AUC0-72 hr [3]?
A: 113100 ng·h/mL

Q: What about the Cmax [3] of the same molecule?
A: 4600 ng/mL

Q: What about the Tmax [3] of the same molecule?
A: 10.8 h

Q: What about the t½ [3] of the same molecule?
A: 71.7 h
